Assay [1] has as its target T1, HIV-1 integrase (wild-type IN) (Human immunodeficiency virus type 1 group M subtype B, UniProt P12497). The experiment in a line: HIV-1 integrase 3′-processing assay (32P-labeled 21-mer, gel). Format: biochemical. An excerpt:
(§1) The oligonucleotides 21 top, 5′-[…]-3′ (SEQ ID NO:1) and 21 bot, 5′-[…]-3′ (SEQ ID NO:2) were purchased from Norris Cancer Center Core Facility (University of Southern California) and purified by UV shadowing on polyacrylamide gel. To analyze the extent of 3′-processing and strand transfer using 5′-end labeled substrates, 21 top was 5′-end labeled using T4 polynucleotide kinase (Epicentre, Madison, Wis.) and γ [^32P]-ATP (Amersham Biosciences or ICN). The kinase was heat-inactivated and 21 bot was added in 1.5-molar excess. The mixture was heated at 95° C., allowed to cool slowly to room temperature, and run through a spin 25 mini-column (USA Scientific) to separate annealed double-stranded oligonucleotide from unincorporated material.
(§2) To determine the extent of 3′-processing and strand transfer, wild-type IN was preincubated at a final concentration of 200 nM with the inhibitor in reaction buffer (50 mM NaCl, 1 mM HEPES, pH 7.5, 50 μM EDTA, 50 μM dithiothreitol, 10% glycerol (w/v), 7.5 mM MnCl2, 0.1 mg/ml bovine serum albumin, 10 mM 2-mercaptoethanol, 10% dimethyl sulfoxide, and 25 mM MOPS, pH 7.2) at 30° C. for 30 min. Then, 20 nM of the 5′-end ^32P-labeled linear oligonucleotide substrate was added, and incubation was continued for an additional one hour. Reactions were quenched by the addition of an equal volume (16 μl) of loading dye (98% deionized formamide, 10 mM EDTA, 0.025% xylene cyanol and 0.025% bromophenol blue). An aliquot (5 μl) was electrophoresed on a denaturing 20% polyacrylamide gel (0.09 M tris-borate pH 8.3, 2 mM EDTA, 20% acrylamide, 8M urea).
(§3) Gels were dried, exposed in a PhosphorImager cassette, and analyzed using a Typhoon 8610 Variable Mode Imager (Amersham Biosciences) and quantitated using ImageQuant 5.2. Percent inhibition (% I) was calculated using the following equation: %I=100×[1−(D−C)/(N−C)]
(§4) where C, N, and D are the fractions of 21-mer substrate converted to 19-mer (3′-processing product) or strand transfer products for DNA alone, DNA plus IN, and IN plus drug, respectively. The IC50 values were determined by plotting the logarithm of drug concentration versus percent inhibition to obtain concentration that produced 50% inhibition. […]

The target of assay [2] is T1, HIV-1 integrase (wild-type IN). The experiment in a line: HIV-1 integrase strand transfer assay (32P-labeled 21-mer, gel). It is filed as biochemical.
Text: as §1, §2, §3, §4

Where [3] appears, read: wild-type IN 200 nM, 7.5 mM MnCl2, read-out: Inhibition of IN Catalytic Activities IC50 (μM) 3′-processing.
Setting [4] is: wild-type IN 200 nM, 7.5 mM MnCl2, read-out: Inhibition of IN Catalytic Activities IC50 (μM) Strand Transfer.
Where [5] appears, read: unit inferred, read-out: IN inhibition activity 3′-processing.
The mark [6] stands for this setting: unit inferred, read-out: IN inhibition activity Strand transfer.
Setting [7] is: Table 54, read-out: IN inhibition activity 3′-processing.
Setting [8] is: Table 54, read-out: IN inhibition activity Strand transfer.
The mark [9] stands for this setting: unit inferred, read-out: HIV-1 IN Inhibitory Activities 3′-processing.
Setting [10] is: unit inferred, read-out: HIV-1 IN Inhibitory Activities Strand transfer.

Structures are written as SMILES. Bounds are passed on as bounds.

Experimental findings from US8183236B2, “Compounds with HIV-1 integrase inhibitory activity and use thereof as anti-HIV/AIDS therapeutics” (University of Southern California, priority 2007, dated 2012) are described below.

As for `O=c1cc(-c2ccccc2)c2ccc(O)c(O)c2o1` [SR44], the values for the IC50 in assay [1] (setting [3]) and in assay [2] (setting [4]) were 32 µM and 16 µM, respectively. In the case of `O=C(CSc1nnc(Cc2ccccc2)n1-c1cccc(Cl)c1)NNC(=O)c1ccccc1O` [AS230], the IC50 was 9 ± 1 µM in assay [1] (setting [5]) and 8 ± 4 µM in assay [2] (setting [6]). Consider `Cc1cc([N+](=O)[O-])ccc1-c1ccc(/C=C/c2ccc3cccc(O)c3n2)o1` [RT31], for which the values for the IC50 in assay [1] (setting [3]) and in assay [2] (setting [4]) were 57 µM and above 100 µM, respectively.

`O=C(CSc1nnc(-c2ccc(Cl)cc2)n1-c1ccccc1)N/N=C/c1cccc(Oc2ccccc2)c1` [LX7]: the IC50 in assay [1] (setting [5]) and in assay [2] (setting [6]) was above 100 µM throughout.

In the case of `O=C(O)c1cccc(-c2ccc(/C=N/NC(=O)c3ccc(C(=O)N/N=C/c4ccc(-c5cccc(C(=O)O)c5)o4)cc3)o2)c1` [AV15A20], the IC50 in assay [1] (setting [5]) was above 100 µM; in assay [2] (setting [6]), 95 µM. For `O=C(NN1C(=O)/C(=C/c2ccc(Br)cc2)SC1=S)c1ccccc1O` [Compound X220], the IC50 in assay [2] (setting [4]) is 27 ± 6 µM. For `CC1=NN(c2nnn[nH]2)C(=O)/C1=C\c1cc(Cl)c(O)c(Cl)c1` [GLD12A5], the IC50 was determined as 11 ± 3 µM in assay [1] (setting [7]) and 13 ± 11 µM in assay [2] (setting [8]). For the compound `CCOc1cc(N(CC)CC)ccc1/C=C1\C(=O)N(c2nnn[nH]2)N=C1C` [GLD12A1], the IC50 in assay [1] (setting [7]) was 61 ± 8 µM; in assay [2] (setting [8]) it was 65 ± 8 µM. For the compound `COc1cc(/C=C2/SC(=S)N(CC(=O)O)C2=O)ccc1OCc1ccccc1Cl` [OT4], the IC50 in assay [1] (setting [3]) came out at 48 ± 7 µM; in assay [2] (setting [4]), 22 ± 4 µM.

As to `Cn1c(SCC(=O)NNC(=O)c2ccccc2O)nnc1-c1ccccc1` [AS9A1], the values for the IC50 in assay [1] (setting [5]) and in assay [2] (setting [6]) were 64 ± 4 µM and 58 ± 2 µM, respectively.

As for `COc1cc(C=C2SC(=S)N(CCC(=O)Nc3ccc(C(=O)O)cc3)C2=O)cc(OC)c1OC` [Compound X173], the IC50 in assay [1] (setting [3]) stood at 97 ± 6 µM; in assay [2] (setting [4]), 85 ± 15 µM. With `CC(C)(C)c1ccc(C(=O)N/N=C/c2ccc(-c3cccc(C(=O)O)c3)o2)cc1` [AV15A36], the figures for the IC50 in assay [1] (setting [5]) and in assay [2] (setting [6]) were above 100 µM and 56 ± 22 µM, respectively. With `CCn1cc(C(=O)O)c(=O)c2cc(F)c(N3CCN(C(=S)S)CC3)cc21` [ROM3A6], the IC50 in assay [1] (setting [3]) and in assay [2] (setting [4]) was above 100 µM in each case.

For `O=C(CCN1C(=O)C(=Cc2cccs2)SC1=S)Nc1cccc(O)c1` [Compound X177], the IC50 in assay [1] (setting [3]) and in assay [2] (setting [4]) was above 100 µM in each case.

For `O=C(O)c1cccc(-c2ccc(/C=N/Nc3nc4ccccc4s3)o2)c1` [AV15A43], the results for the IC50 in assay [1] (setting [5]) and in assay [2] (setting [6]) were 63 ± 7 µM and 24 ± 11 µM, respectively. In the case of `CN(C)c1nc(NCc2ccccc2)nc(N/N=C/c2ccc(-c3cccc(C(=O)O)c3)o2)n1` [AV15A26], the values for the IC50 in assay [1] (setting [5]) and in assay [2] (setting [6]) were above 100 µM and 88 µM, respectively.

For the compound `O=C(O)c1cccc(-c2ccc(/C=N/Nc3nc(Nc4ccccc4)nc(Nc4ccccc4)n3)o2)c1` [AV15A42], the IC50 in assay [1] (setting [5]) was 89 ± 19 µM.

For the compound `N=C1S/C(=C/c2ccc(-c3ccccc3C(=O)O)o2)C(=O)N1c1ccc2c(c1)OCO2` [Compound T36], the figures for the IC50 in assay [1] (setting [5]) and in assay [2] (setting [6]) were 12 ± 6 µM and 6.5 ± 1 µM, respectively.

As to `O=C(/C=C/c1ccco1)NC(=S)Nc1ccccc1O` [Example X205], the IC50 turned out to be 57 µM in assay [1] (setting [9]) and 28 µM in assay [2] (setting [10]). In the case of `Cc1ccc(C=C2SC(=S)N(CC(=O)Nc3cc([N+](=O)[O-])ccc3O)C2=O)cc1` [Compound X191], the IC50 in assay [1] (setting [3]) worked out at 84 ± 24 µM; in assay [2] (setting [4]), 80 ± 18 µM.

`O=C(O)c1cccc(-c2ccc(/C=N/Nc3nnn[nH]3)o2)c1` [AV15A1]: the results for the IC50 in assay [1] (setting [5]) and in assay [2] (setting [6]) were above 100 µM and 96 ± 6 µM, respectively. On to `COc1cc(/C=C2\C(=O)N(c3nnn[nH]3)N=C2C)cc(Cl)c1OC` [GLD12A2], for which the IC50 in assay [1] (setting [7]) was 5 ± 2 µM; in assay [2] (setting [8]), 4 ± 2 µM. Take `COc1ccc(/C=N/NC(=O)CSc2nnc(-c3ccccc3)n2-c2ccccc2)c(C(=O)O)c1OC` [OT10]: the IC50 in assay [1] (setting [5]) and in assay [2] (setting [6]) was above 100 µM in each case. Regarding `CC(C)(C)c1ccc(OCC(=O)N/N=C/c2ccc(-c3cccc(C(=O)O)c3)o2)cc1` [AV15A35], the IC50 in assay [1] (setting [5]) was above 100 µM; in assay [2] (setting [6]), 86 µM. In the same order, the values of `O=C(O)c1cc(-c2ccc(/C=N/Nc3nc4nonc4nc3Nc3cccc(Br)c3)o2)ccc1O` [AV15A24] are 5 ± 3 µM and 3.4 ± 2 µM. Regarding `COc1ccc(CCNC(=O)CC(=O)N/N=C/c2ccco2)cc1OC` [Example X134], the IC50 is above 100 µM in assay [1] (setting [9]) and 90 µM in assay [2] (setting [10]). On to `CCc1ccc(C=C2SC(=S)N(CCC(=O)Nc3ccc(O)c(C(=O)O)c3)C2=O)cc1` [Compound X170], for which the IC50 in assay [1] (setting [3]) was determined as 15 ± 3 µM; in assay [2] (setting [4]), 11 ± 5 µM. Consider `CC1=C(C#N)c2nc(N)c(C#N)c(C)c2/C1=C/c1ccc(-c2cccc(C(=O)O)c2)o1` [AV15A11], for which the IC50 in assay [1] (setting [5]) is 24 ± 16 µM; in assay [2] (setting [6]), 20 ± 13 µM. In the case of `COc1ccc2oc(=O)c(-c3csc(N/N=C/c4ccccc4O)n3)cc2c1` [Compound X143], the results for the IC50 in assay [1] (setting [9]) and in assay [2] (setting [10]) were 30 µM and 10 µM, respectively. Take `O=C(CN1C(=O)/C(=C2\SC(=S)N(CC(=O)Nc3ccc(O)cc3)C2=O)SC1=S)Nc1ccc(O)cc1` [Compound X103]: the IC50 in assay [1] (setting [3]) was 59 ± 37 µM; in assay [2] (setting [4]), 69 µM. Take `N#C/C(=C\c1ccc(-c2cc(Cl)ccc2C(=O)O)o1)c1nc2ccccc2[nH]1` [AV15A52]: the IC50 in assay [2] (setting [6]) was found to be 51 µM. For `CCOc1ccc(C=C2SC(=S)N(CCC(=O)Nc3cccc(C(=O)O)c3)C2=O)cc1` [Compound X95], the IC50 is 93 ± 12 µM in assay [1] (setting [3]) and above 100 µM in assay [2] (setting [4]).

As for `COc1cc(-c2nc3ccccn3c2/N=C/c2ccc(-c3ccc(Cl)c(C(=O)O)c3)o2)ccc1O` [AV15A25], the IC50 in assay [1] (setting [5]) and in assay [2] (setting [6]) was above 100 µM throughout. In the case of `Nc1nonc1-c1nc2ccccc2n1CC(=O)N/N=C/c1ccc(-c2cccc(C(=O)O)c2)o1` [NST20], the IC50 in assay [2] (setting [4]) worked out at 68 µM. Consider `O=C(CCCN1C(=O)/C(=C/c2cccs2)SC1=S)Nc1nc2ccccc2s1` [Compound X178], for which the IC50 in assay [1] (setting [3]) is 98 ± 5 µM. For the compound `O=C(Nc1nncs1)c1c(O)c2ccccc2n(Cc2ccccc2)c1=O` [LM33], in assay [2] (setting [4]), the IC50 came to 36 µM. Regarding `Cc1nc(=O)c(-c2ccccc2)c(C)n1-c1ccc(C(=O)O)c(O)c1` [Compound X181], in assay [2] (setting [4]), the IC50 is 73 ± 24 µM.

Turning to `COC(=O)c1ccc(C(=O)OC)c(NC(=O)c2ccc(C)c([N+](=O)[O-])c2)c1` [Compound X19], in assay [1] (setting [3]), the IC50 was found to be 92 µM. Same read-out and setting: the figure for `COc1ccccc1C=C1SC(=S)N(CCC(=O)Nc2ccc(O)cc2)C1=O` [Compound X118] is 99 ± 3 µM. As for `CCn1c(=O)c(C(=O)Nc2ccccc2C(=O)OC)c(O)c2ccccc21` [XR15], in assay [2] (setting [4]), the IC50 was determined as 9.5 µM. With `Cc1cccc(Nc2nc3nonc3nc2N/N=C/c2ccc(-c3ccccc3Cl)o2)c1C` [AV15A33], in assay [1] (setting [5]), the IC50 was above 100 µM.

Regarding `Cc1ccc(C=C2SC(=S)N(CCC(=O)Nc3cccc(C(=O)O)c3)C2=O)cc1` [Compound X100], in assay [2] (setting [4]), the IC50 was above 100 µM. Consider `CCOC(=O)CCc1cc(C(=O)OCC)c(CCC(=O)OCC)cc1C(=O)OCC` [Compound X35], for which, in assay [2] (setting [4]), the IC50 was 94 µM. On the same count and under the same terms, the figure for `C=CCn1c(=O)c(C(=O)Nc2ccccc2OC)c(O)c2ccccc21` [XR3] is 25 µM. For `COC(=O)C1=C(C(=O)OC)SC(=C2C(=S)C(C)(C)N(C(=O)c3cccnc3)c3ccc(C)cc32)S1` [RT25], the IC50 in assay [1] (setting [3]) was above 100 µM. Take `O=C(N/N=C/c1ccc(-c2ccc(Cl)cc2)o1)c1ccccc1` [AV15A29]: in assay [1] (setting [5]), the IC50 is above 100 µM.

Consider `O=C1C(=Cc2c(NCCO)nc3ccccn3c2=O)SC(=S)N1Cc1ccco1` [Compound X281], for which the IC50 in assay [1] (setting [3]) is above 100 µM.
